From ChEMBL document CHEMBL3785004, “New antimalarial norterpene cyclic peroxides from Xisha Islands sponge Diacarnus megaspinorhabdosa” (Bioorg Med Chem Lett, 2016)

Assays:
[1] = Selectivity index, ratio of IC50 for Vero cells to IC50 for chloroquine sensitive Plasmodium falciparum D6; type: toxicity, cell-based; conditions: monkey, read-out: Ratio IC50
[2] = Selectivity index, ratio of IC50 for Vero cells to IC50 for chloroquine resistant Plasmodium falciparum W2; type: toxicity, cell-based; conditions: monkey, read-out: Ratio IC50
[3] = tested on: Plasmodium falciparum; assay: Antimalarial activity against chloroquine resistant Plasmodium falciparum W2 after 72 hrs by LDH assay; type: functional, organism-based; conditions: W2, 72 h
[4] = tested on: Plasmodium falciparum; assay: Antimalarial activity against chloroquine sensitive Plasmodium falciparum D6 after 72 hrs by LDH assay; type: functional, organism-based; conditions: D6, 72 h

SMILES	selectivity ratio [1]	selectivity ratio [2]	IC50 [3] [µM]	IC50 [4] [µM]
C=C1CCCC(C)(C)C1(O)CC/C(C)=C/CC[C@@]1(C)CC[C@H]([C@H](C)C(=O)O)OO1 (some centres undefined)	1.6	2.4	4.9	7.3
CC1=C(CC[C@]2(C)CC[C@H]([C@@H](C)C(=O)O)OO2)C(C)(C)CCC1	1.7	2.6	5.5	8.1
C=C1CCCC(C)(C)C1(O)CC/C(C)=C/CC[C@@]1(C)CC[C@H]([C@H](C)C(=O)OC)OO1 (some centres undefined)	5.1	7	1.6	2.2
COC(=O)[C@@H](C)[C@H]1CC[C@](C)(CC/C=C(\C)CCC2(O)C(C)CCCC2(C)C)OO1 (some centres undefined)	2	2.6	4.2	5.6
COC(=O)[C@@H](C)[C@H]1CC[C@](C)(CC/C=C(\C)CCC2(C)C(C)CCCC2(C)O)OO1 (some centres undefined)	1.7	3.7	3	6.6
CC1=C(CC/C(C)=C/CC[C@@]2(C)CC[C@H]([C@H](C)C(=O)O)OO2)C(C)(C)CCC1	1.4	2.2	5.6	8.6
C[C@@H]1CC[C@H]2[C@@H](C)C(=O)O[C@@H]3O[C@@]4(C)CC[C@@H]1[C@]32OO4 [ARTEMISININ]	–	–	0.14	–
COC(=O)[C@H](C)[C@H]1CC[C@@](C)(CCC2=C(C)C(=O)CCC2(C)C)OO1 [DIACARPEROXIDE A]	6.5	6.8	1.9	2
